In series [1] the target is Multidrug resistance protein 1a (Rattus norvegicus) (UniProt Q6PSM0). Nature of the series: (§1) TP_TRANSPORTER: Western in vivo, kidney of SD rat. It is filed as functional, organism-based. Particulars: Sprague-Dawley.
For series [2], the target named is T1, ATP-binding cassette sub-family C member 2 (Rattus norvegicus, UniProt Q63120). Nature of the series: TP_TRANSPORTER: Western in vivo, liver of SD rat. Type of series: functional, organism-based, Sprague-Dawley.
Series [3] deals with T1, ATP-binding cassette sub-family C member 2. The description is as §1. Type of series: functional, organism-based, Sprague-Dawley.

Each structure is given as a SMILES string.

T1 sequence (Q63120 whole entry): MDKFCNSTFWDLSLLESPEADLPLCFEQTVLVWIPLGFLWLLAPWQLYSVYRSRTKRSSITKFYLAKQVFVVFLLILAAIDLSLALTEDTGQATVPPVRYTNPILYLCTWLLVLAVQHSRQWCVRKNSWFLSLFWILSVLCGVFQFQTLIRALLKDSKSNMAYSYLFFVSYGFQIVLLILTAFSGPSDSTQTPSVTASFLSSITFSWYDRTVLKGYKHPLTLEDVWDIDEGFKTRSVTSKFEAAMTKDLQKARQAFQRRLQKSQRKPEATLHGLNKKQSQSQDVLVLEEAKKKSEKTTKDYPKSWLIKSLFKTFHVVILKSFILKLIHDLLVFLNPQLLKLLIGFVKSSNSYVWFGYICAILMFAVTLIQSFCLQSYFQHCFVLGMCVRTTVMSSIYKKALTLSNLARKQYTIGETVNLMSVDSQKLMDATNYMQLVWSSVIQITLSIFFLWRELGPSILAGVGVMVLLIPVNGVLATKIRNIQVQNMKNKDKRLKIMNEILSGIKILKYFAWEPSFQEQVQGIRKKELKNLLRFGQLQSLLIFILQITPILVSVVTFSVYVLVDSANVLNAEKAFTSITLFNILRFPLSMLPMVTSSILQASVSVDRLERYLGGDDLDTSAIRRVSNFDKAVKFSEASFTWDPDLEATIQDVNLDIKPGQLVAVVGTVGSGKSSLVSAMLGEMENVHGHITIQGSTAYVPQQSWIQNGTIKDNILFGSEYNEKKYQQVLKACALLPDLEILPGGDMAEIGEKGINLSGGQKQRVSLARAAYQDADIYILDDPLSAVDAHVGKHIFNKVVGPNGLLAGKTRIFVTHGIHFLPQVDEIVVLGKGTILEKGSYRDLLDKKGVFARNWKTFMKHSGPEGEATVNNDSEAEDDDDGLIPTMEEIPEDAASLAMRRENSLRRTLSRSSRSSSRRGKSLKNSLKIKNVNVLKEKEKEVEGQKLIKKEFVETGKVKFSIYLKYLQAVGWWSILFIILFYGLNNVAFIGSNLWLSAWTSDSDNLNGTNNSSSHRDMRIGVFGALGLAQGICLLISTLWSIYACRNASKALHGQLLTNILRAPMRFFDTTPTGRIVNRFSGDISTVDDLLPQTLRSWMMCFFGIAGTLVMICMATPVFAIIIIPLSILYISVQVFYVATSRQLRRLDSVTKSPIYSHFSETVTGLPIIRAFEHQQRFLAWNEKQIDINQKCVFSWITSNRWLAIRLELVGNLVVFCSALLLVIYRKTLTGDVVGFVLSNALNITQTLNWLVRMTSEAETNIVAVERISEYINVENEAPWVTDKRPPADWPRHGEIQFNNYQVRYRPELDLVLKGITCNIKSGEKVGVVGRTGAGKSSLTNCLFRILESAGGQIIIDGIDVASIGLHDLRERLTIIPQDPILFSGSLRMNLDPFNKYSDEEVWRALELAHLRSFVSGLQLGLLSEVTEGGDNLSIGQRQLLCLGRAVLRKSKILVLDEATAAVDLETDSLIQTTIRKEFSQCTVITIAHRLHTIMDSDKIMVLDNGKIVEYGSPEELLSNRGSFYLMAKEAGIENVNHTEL
Sequence of Multidrug resistance protein 1a (Rattus norvegicus) (Q6PSM0 as listed by the source): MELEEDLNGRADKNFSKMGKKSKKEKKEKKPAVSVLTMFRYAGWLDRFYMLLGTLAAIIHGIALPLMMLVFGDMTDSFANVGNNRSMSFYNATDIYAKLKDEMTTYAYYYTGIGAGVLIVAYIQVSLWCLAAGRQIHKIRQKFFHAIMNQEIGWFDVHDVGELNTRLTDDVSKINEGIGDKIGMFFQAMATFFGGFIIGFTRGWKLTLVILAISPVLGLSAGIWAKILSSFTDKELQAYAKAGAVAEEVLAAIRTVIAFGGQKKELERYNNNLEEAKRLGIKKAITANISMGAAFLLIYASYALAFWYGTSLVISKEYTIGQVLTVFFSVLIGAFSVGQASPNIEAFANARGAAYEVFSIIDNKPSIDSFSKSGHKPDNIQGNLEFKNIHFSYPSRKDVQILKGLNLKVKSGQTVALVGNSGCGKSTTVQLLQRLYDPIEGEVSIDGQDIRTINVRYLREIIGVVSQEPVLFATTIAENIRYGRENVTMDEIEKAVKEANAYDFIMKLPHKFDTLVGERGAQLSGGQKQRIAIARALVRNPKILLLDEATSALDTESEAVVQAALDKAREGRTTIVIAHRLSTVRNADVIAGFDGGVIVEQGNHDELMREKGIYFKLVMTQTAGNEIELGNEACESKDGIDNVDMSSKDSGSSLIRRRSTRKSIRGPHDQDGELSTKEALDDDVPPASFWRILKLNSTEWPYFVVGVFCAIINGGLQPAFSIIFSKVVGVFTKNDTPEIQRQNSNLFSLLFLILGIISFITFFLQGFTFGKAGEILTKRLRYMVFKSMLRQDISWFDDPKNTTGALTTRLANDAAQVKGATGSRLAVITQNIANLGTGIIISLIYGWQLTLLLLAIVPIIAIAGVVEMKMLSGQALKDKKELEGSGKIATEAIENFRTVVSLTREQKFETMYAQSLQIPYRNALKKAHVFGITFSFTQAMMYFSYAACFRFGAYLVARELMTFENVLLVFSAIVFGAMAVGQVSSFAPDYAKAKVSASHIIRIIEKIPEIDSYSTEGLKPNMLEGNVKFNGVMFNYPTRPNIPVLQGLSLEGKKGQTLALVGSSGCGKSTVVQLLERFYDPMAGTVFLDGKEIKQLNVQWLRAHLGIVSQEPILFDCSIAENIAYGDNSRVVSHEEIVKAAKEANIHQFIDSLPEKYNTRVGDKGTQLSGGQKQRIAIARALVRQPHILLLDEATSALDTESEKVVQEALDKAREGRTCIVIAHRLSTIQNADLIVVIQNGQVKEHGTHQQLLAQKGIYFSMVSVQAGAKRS

As for `C[C@@H]1C[C@H]2[C@@H]3CCC4=CC(=O)C=C[C@]4(C)[C@@]3(F)[C@@H](O)C[C@]2(C)[C@@]1(O)C(=O)CO` [DEXAMETHASONE], the Activity result is “inducer [Decrease]” in series [1], “inducer [+]” in series [2] and “inducer [+]” in series [3].

Source of the values: ChEMBL document CHEMBL2074267, “Dexamethasone modulation of multidrug transporters in normal tissues” (FEBS Lett, 1999).
